Experimental data as given in patent EP0569096A1, “Depot preparation” (Akzo Nobel N.V., priority 1992, dated 1993).
Where a name gives a salt, the structure may show the parent alone. Values belong to the compound of their own block, whether it stands above or below them.

Experiments:
[1] = physchem; conditions: water
[2] = water solubility of the salts; conditions: general statement in the disclosure of the invention
[3] = solubility of the crystalline form compared with the amorphous solid; assay type: physicochemical; conditions: crystals formed after storage for two weeks at 50° C
Method: (§1) The pamoate salt of EXAMPLE I was stored for two weeks at 50° C, and crystals spontaneously formed. […] Furthermore they were easier to segregate for micronization, and easier to form a suspension with.

[4] = stability of the crystalline form compared with the amorphous solid; assay type: physicochemical; conditions: crystals formed after storage for two weeks at 50° C
Method: as §1

Structure (SMILES): CN1C[C@H]2c3ccccc3Oc3ccc(Cl)cc3[C@@H]2C1 (relative stereo) [fumarate]
solubility [1]: 1 mg/mL

Structure (SMILES): CN1C[C@H]2c3ccccc3Oc3ccc(Cl)cc3[C@@H]2C1 (relative stereo) [pamoate salt]
solubility (in words) [2]: very insoluble

solubility relative to the amorphous yellow solid [3]: less soluble
stability relative to the amorphous yellow solid [4]: more stable
Structure (SMILES): CN1C[C@@H]2c3ccccc3Oc3ccc(Cl)cc3[C@H]2C1.O=C(O)c1cc2ccccc2c(Cc2c(O)c(C(=O)O)cc3ccccc23)c1O [crystals]

solubility (in words) [2]: very insoluble
Structure (SMILES): CN1CC2c3ccccc3Oc3ccc(Cl)cc3C2C1.CN1CC2c3ccccc3Oc3ccc(Cl)cc3C2C1.O=C(O)c1cc2ccccc2c(Cc2c(O)c(C(=O)O)cc3ccccc23)c1O [hemipamoate]
